Test results as given in patent US20190270778A1, “Cyclic Peptides As C5a Receptor Antagonists” (priority 2016, published 2019).

Columns and labels:
C5a receptor [1] = biological target: T1, C5a receptor (Homo sapiens, UniProt P21730); assay: HWB oxidative burst assay (C5a-induced, luminol chemiluminescence); format: cell-based
T1 construct: endogenous in cells; host or cells: leukocytes/granulocytes in freshly drawn whole blood of healthy volunteers
T1 sequence (P21730 1-350): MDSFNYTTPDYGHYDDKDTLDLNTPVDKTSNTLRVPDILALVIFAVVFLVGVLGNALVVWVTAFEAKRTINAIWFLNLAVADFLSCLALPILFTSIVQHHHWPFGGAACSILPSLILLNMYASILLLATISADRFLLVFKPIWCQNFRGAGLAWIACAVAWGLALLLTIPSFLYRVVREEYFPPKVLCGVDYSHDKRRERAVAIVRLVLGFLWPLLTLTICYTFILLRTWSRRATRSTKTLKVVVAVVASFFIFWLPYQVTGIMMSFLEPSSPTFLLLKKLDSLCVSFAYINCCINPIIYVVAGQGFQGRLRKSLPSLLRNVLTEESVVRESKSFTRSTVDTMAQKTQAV
Description: Inhibition of oxidative burst activity was determined in HWB primed with TNF-α and stimulated with C5a. C5a-induced oxidative burst response (generation of reactive oxygen species) was then detected in the presence of luminol as a chemiluminescent signal.
On the day of assay, HWB was collected from a healthy, non-medicated volunteer into tubes containing 3.8% sodium citrate (final sodium citrate concentration in HWB is 0.38%) and stored in a 37° C. water bath until use (no longer than 60 minutes).
To start the assay, TNF-α was added to HWB to a final concentration of 1.0 nM and 68 μL of this HWB/TNF-α mix was transferred to each well of a 384-well white Optiplate (assay plate). 4.0 μL of various concentrations of test agent were then added to the assay plate and mixed twice gently by aspirating up and down. The assay plate was then placed on a thermoshaker (JITTERBUG-4) and incubated at 37° C. (without shaking). After 60 minutes, C5a (Complement Technology) prepared in luminol (Sigma) was added to the assay plate and mixed twice gently by aspirating up and down. The plate was then placed in a ViewLux 1430 Microplate Imager (Perkin Elmer). After 5 minutes, oxidative burst activity was determined with the ViewLux by measuring luminol-enhanced whole blood chemiluminescence. Final assay conditions were 1.5 mM HEPES pH 7.5, 0.015% BSA, 15% HBSS, 0.85 ng/mL TNFα, 1.0 mM Luminol, C5a 20 nM, 76.5% HWB, 0.15% DMSO and various concentrations of test agent.
The percent (%) effect at each concentration of test agent was then calculated based on and relative to the amount of signal that was produced by positive (i.e. full inhibition of C5a induced oxidative burst) and negative (i.e. completely uninhibited C5a induced oxidative burst) control wells contained within each assay plate. The concentration and % effect values for test agents were plotted and the concentration of test agent required for 50% effect (IC50) was determined with a four-parameter logistic dose response equation (BioBook; IDBS). Kb (nM) was then calculated (BioBook; IDBS) using the equation described by Leff and Dougal (TIPS 1993 14:110-112).

C5a receptor [2] = biological target: T1, C5a receptor; assay: HWB CD11b expression assay (C5a-challenged granulocytes, flow cytometry); format: cell-based
Description: HWB was collected from healthy, non-medicated volunteers into BD Vacutainer® blood collection tubes with K2EDTA as an anticoagulant. HWB was aliquoted (85 μL/well) in 96-well, deep-well, V-bottom plates and incubated at 37° C. for 30 minutes. Test compounds (5 μL/well) were added to HWB and incubated at 37° C. for 30 minutes. Anti-human CD11b antibody conjugated with APC (BD Biosciences) was added to HWB (5 μL/well) and incubated at 37° C. for additional 30 minutes. HWB was then challenged with human C5a (final 1 nM) for 30 minutes at 37° C. Samples were treated with warm 1× Lyse/Fix buffer (BD Biosciences) to terminate activation and further incubated at 37° C. for 20 minutes to lyse red blood cells. Assay plates were centrifuged at 300×g for 5 minutes, supernatant was aspirated, and cells were washed once with PBS containing 0.5% FBS. Washed cells were resuspended in PBS containing 0.5% FBS and subjected to flow cytometric analysis using an LSRFortessa equipped with a HTS plate loader (BD Biosciences). The granulocyte population was gated for analysis of MF of CD11b staining using FACSDiva version 6.2 (BD Biosciences). Data from 11 compound concentrations (singlicate at each concentration) was normalized as a percentage of control based on the formula:
% of Control=100×(A−B)/(C−B)
where A is MF from wells containing test compound and C5a, B is MF from wells without C5a (background MF from unstimulated samples) and C is MF from wells containing only C5a (maximum MF). Inhibition curves and IC50 values (test compound concentrations which produce 50% inhibition) were determined using the Prism version 5 software (GraphPad). HWB was also stimulated with 11 different concentrations of C5a to construct a responsive curve and to obtain EC50 value (the concentration of C5a that gives half-maximal response) and curve slope using the Prism version 5 software. Kb (nM) was then calculated using the equation described by Leff and Dougal (TIPS 1993 14:110-112).

Row | SMILES | Kb (C5a receptor [1]) [nM] | Kb (C5a receptor [2]) [nM] | Kb (C5a receptor [1]; human whole blood primed with TNF-α, stimulated with C5a 20 nM, Kb calculated from IC50 (Leff and Dougal), read-out: Oxidative burst, Kb) [nM] | Kb (C5a receptor [2]; human whole blood challenged with human C5a 1 nM, granulocyte CD11b mean fluorescence, Kb calculated from IC50 (Leff and Dougal), read-out: CD11b, Kb) [nM]
1 | N=C(N)NCCC[C@@H]1NC(=O)[C@H](Cc2c[nH]c3ccccc23)NC(=O)[C@@H](C[C@H]2CC[C@@H](O)CC2)NC(=O)[C@@H]2C[C@H](N)CN2C(=O)[C@@H](NC(=O)[C@H](Cc2ccccc2)NCC(=O)O)CCCNC1=O [Example 7, ((S)-1-(((3R,6S,9S,15S,19S,20aS)-6-((1H-indol-3-yl)methyl)-19-amino-9-(3-guanidinopropyl)-3-(((1s,4S)-4-hydroxycyclohexyl)methyl)-1,4,7,10,16-pentaoxoicosahydropyrrolo[1,2-a][1,4,7,10,13]pentaazacyclooctadecin-15-yl)amino)-1-oxo-3-phenylpropan-2-yl)glycine] | 1.8 | 10.9 | – | –
2 | N=C(N)NCCC[C@@H]1NC(=O)[C@H](Cc2c[nH]c3ncccc23)NC(=O)[C@@H](C[C@H]2CC[C@@H](O)CC2)NC(=O)[C@@H]2CCCN2C(=O)[C@@H](NC(=O)[C@H](Cc2ccccc2)NCC(=O)O)CCCNC1=O [Example 5, ((S)-1-(((3R,6S,9S,15S,20aS)-6-((1H-pyrrolo[2,3-b]pyridin-3-yl)methyl)-9-(3-guanidinopropyl)-3-(((1s,4S)-4-hydroxycyclohexyl)methyl)-1,4,7,10,16-pentaoxoicosahydropyrrolo[1,2-a][1,4,7,10,13]pentaazacyclooctadecin-15-yl)amino)-1-oxo-3-phenylpropan-2-yl)glycine] | – | – | 27.3 | 300
3 | Cc1cnn(C[C@@H]2NC(=O)[C@@H](C[C@H]3CC[C@@H](O)CC3)NC(=O)[C@@H]3C[C@@H](O)CN3C(=O)[C@@H](NC(=O)[C@H](Cc3ccccc3)NCC(=O)O)CCCNC(=O)[C@H](CCCNC(=N)N)NC2=O)c1 [Example 3, ((S)-1-(((3R,6S,9S,15S,19R,20aS)-9-(3-guanidinopropyl)-19-hydroxy-3-(((1s,4S)-4-hydroxycyclohexyl)methyl)-6-((4-methyl-1H-pyrazol-1-yl)methyl)-1,4,7,10,16-pentaoxoicosahydropyrrolo[1,2-a][1,4,7,10,13]pentaazacyclooctadecin-15-yl)amino)-1-oxo-3-phenylpropan-2-yl)glycine] | 21.6 | 212 | – | –
4 | CCc1ccc2c(C[C@@H]3NC(=O)[C@@H](C[C@H]4CC[C@@H](O)CC4)NC(=O)[C@@H]4C[C@@H](O)CN4C(=O)[C@@H](NC(=O)[C@H](Cc4ccccc4)NCC(=O)O)CCCNC(=O)[C@H](CCCNC(=N)N)NC3=O)c[nH]c2c1 [Example 17, ((S)-1-(((31R,6S,9S,15S,19R,20aS)-6-((6-ethyl-1H-indol-3-yl)methyl)-9-(3-guanidinopropyl)-19-hydroxy-3-(((1s,4S)-4-hydroxycyclohexyl)methyl)-1,4,7,10,16-pentaoxoicosahydropyrrolo[1,2-a][1,4,7,10,13]pentaazacyclooctadecin-15-yl)amino)-1-oxo-3-phenylpropan-2-yl)glycine] | 29.7 | 234 | – | –
5 | COc1ccc2[nH]cc(C[C@@H]3NC(=O)[C@@H](C[C@H]4CC[C@@H](O)CC4)NC(=O)[C@@H]4C[C@@H](O)CN4C(=O)[C@@H](NC(=O)[C@H](Cc4ccccc4)NCC(=O)O)CCCNC(=O)[C@H](CCCNC(=N)N)NC3=O)c2c1 [Example 4, ((S)-1-(((3R,6S,9S,15S,19R,20aS)-9-(3-guanidinopropyl)-19-hydroxy-3-(((1s,4S)-4-hydroxycyclohexyl)methyl)-6-((5-methoxy-1H-indol-3-yl)methyl)-1,4,7,10,16-pentaoxoicosahydropyrrolo[1,2-a][1,4,7,10,13]pentaazacyclooctadecin-15-yl)amino)-1-oxo-3-phenylpropan-2-yl)glycine] | 3 | 53.8 | – | –
